Drawing on PubChem BioAssay (NCI), this text covers TGI for eleven compounds.

Some test systems named below: A498 renal; COLO 205 colon; HCT-116 colon; HCT-15 colon; HL-60(TB) leukemia; M14 melanoma; MDA-N; OVCAR-5 ovarian; PC-3 prostate; RPMI-8226 leukemia; SNB-19 CNS.
Common to all, as to assay: inhibition of tumour cell growth, NCI panel, 48 h

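Protocol summary: plate cells (96-well), add compound at 5 concentrations, incubate 48 h, interpolate endpoints linearly. TGI: total growth inhibition.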

In the case of `Cc1cccc(NC(=S)N/N=C(/c2ccccc2)c2ccccn2)c1`, the TGI is 13.7 µM in the assay with A498 renal; 12.8 µM in the assay with COLO 205 colon; 13 µM in the assay with HCT-116 colon; 16.5 µM with HCT-15 colon; 1.53 µM in the assay on HL-60(TB) leukemia; 2.58 µM in the assay with M14 melanoma. For the same compound, the TGI in the assay with MDA-N is 20.8 µM; with OVCAR-5 ovarian it was 8.68 µM; in the assay on PC-3 prostate, 18.3 µM; in the assay on RPMI-8226 leukemia it was greater than 7.74 µM; in the assay with SNB-19 CNS, 20 µM.

With `c1ccc2c(c1)C(=Nc1ccc(N=C3c4ccccc4-c4ccccc43)cc1)c1ccccc1-2`, the TGI in the assay on A498 renal, in the assay on COLO 205 colon, in the assay with HCT-116 colon, in the assay on HCT-15 colon, in the assay with HL-60(TB) leukemia and with M14 melanoma was greater than 100 µM in each case. The TGI in the assay on MDA-N, with OVCAR-5 ovarian, in the assay on PC-3 prostate, in the assay on RPMI-8226 leukemia and in the assay with SNB-19 CNS was greater than 100 µM throughout.

For `[N-]=[N+]=NC1=C(c2ccccc2)C(=O)c2cccc3cccc1c23`, the TGI in the assay on A498 renal is 8.29 µM; with COLO 205 colon, greater than 100 µM; in the assay with HCT-116 colon, greater than 100 µM; in the assay with HCT-15 colon it was greater than 100 µM; in the assay with HL-60(TB) leukemia it was greater than 100 µM; with M14 melanoma, greater than 100 µM. Further, the TGI in the assay with MDA-N, in the assay on OVCAR-5 ovarian, in the assay on PC-3 prostate, with RPMI-8226 leukemia and with SNB-19 CNS was greater than 100 µM in each case.

Turning to `COC(=O)C1CCC(=O)N1C(c1ccc2c(c1)OCO2)c1ccc2c(c1)OCO2` (centres undefined), the TGI in the assay on A498 renal, with COLO 205 colon, with HCT-116 colon, in the assay with HCT-15 colon, with HL-60(TB) leukemia and with M14 melanoma was greater than 100 µM throughout. Moreover, the TGI with MDA-N, in the assay on OVCAR-5 ovarian, with PC-3 prostate, in the assay with RPMI-8226 leukemia and in the assay on SNB-19 CNS was greater than 100 µM throughout.

Regarding `CCNc1ncnc2n[nH]nc12`, the TGI in the assay with A498 renal, in the assay on COLO 205 colon, in the assay with HCT-116 colon, in the assay with HCT-15 colon, in the assay on HL-60(TB) leukemia and in the assay on M14 melanoma was greater than 100 µM in each case. Moreover, the TGI in the assay with MDA-N, in the assay with PC-3 prostate, in the assay on RPMI-8226 leukemia and in the assay on SNB-19 CNS was greater than 100 µM each time.

In the case of `CCCCCCCC/C=C/CCCCCCCC1CC(O)C(=O)O1` (centres undefined), the TGI is greater than 100 µM in the assay with A498 renal; greater than 100 µM with COLO 205 colon; greater than 100 µM in the assay with HCT-116 colon; greater than 100 µM in the assay with HCT-15 colon; 88.3 µM in the assay on HL-60(TB) leukemia; greater than 100 µM in the assay with M14 melanoma. Also, the TGI in the assay with MDA-N was greater than 100 µM; with OVCAR-5 ovarian, greater than 100 µM; with PC-3 prostate, greater than 100 µM; in the assay on RPMI-8226 leukemia, 76.7 µM; with SNB-19 CNS, greater than 100 µM.

On to `CN(C)/C=N/S(=O)(=O)c1nn2c(C=O)c(-c3ccc(-c4ccc([N+](=O)[O-])cc4)o3)nc2s1`, for which the TGI is 54.2 µM in the assay on A498 renal; 3.68 µM with HCT-116 colon; 12.5 µM with HCT-15 colon; 2.54 µM in the assay with HL-60(TB) leukemia; 2.7 µM in the assay on MDA-N; greater than 30.5 µM with OVCAR-5 ovarian. Also, the figures for the TGI in the assay on PC-3 prostate, in the assay on RPMI-8226 leukemia and with SNB-19 CNS were 14.3 µM, 13.5 µM and 45.5 µM, respectively.

Consider `Cc1nc(C)c(N2CCN(C#N)CC2)c(=O)[nH]1`, for which the TGI in the assay with A498 renal, with COLO 205 colon, with HCT-116 colon, in the assay on HCT-15 colon, in the assay with HL-60(TB) leukemia and with M14 melanoma was greater than 100 µM each time. The TGI with MDA-N, in the assay on PC-3 prostate, in the assay with RPMI-8226 leukemia and in the assay with SNB-19 CNS was greater than 100 µM each time.

On to `N/N=C(\C(=O)Nc1ccc([N+](=O)[O-])cc1)C(C1=Nc2cc([N+](=O)[O-])ccc2NC1)[N+](=O)[O-]` (centres undefined), for which the TGI in the assay with A498 renal, in the assay on HCT-116 colon, with HCT-15 colon, in the assay with HL-60(TB) leukemia, in the assay with M14 melanoma and in the assay on MDA-N was greater than 100 µM each time. The TGI in the assay on OVCAR-5 ovarian, in the assay on PC-3 prostate, with RPMI-8226 leukemia and in the assay on SNB-19 CNS was greater than 100 µM throughout.

For `Cc1nc2c(ncn2CCO)c(=O)[nH]1`, the TGI in the assay with A498 renal, with COLO 205 colon, in the assay on HCT-116 colon, in the assay on HCT-15 colon, in the assay with HL-60(TB) leukemia and with M14 melanoma was greater than 100 µM throughout. For the same compound, the TGI with MDA-N, in the assay with OVCAR-5 ovarian, with PC-3 prostate and with SNB-19 CNS was greater than 100 µM throughout.

For the compound `COC(=O)CCC(=O)c1ccc2c(c1)CC1(C2)Cc2ccc3c(c2C1)CCCC3=O` (centres undefined), the TGI with A498 renal is 82.8 µM; in the assay with COLO 205 colon it was greater than 67.6 µM; in the assay with HCT-116 colon, greater than 100 µM; in the assay on HCT-15 colon, greater than 67.4 µM; in the assay on HL-60(TB) leukemia it was 13.4 µM; with M14 melanoma, greater than 57 µM. Also, the TGI is 47.9 µM with MDA-N, greater than 100 µM in the assay with OVCAR-5 ovarian, greater than 79.9 µM with PC-3 prostate and greater than 100 µM with SNB-19 CNS.
